Data taken from US20240360175A1, “PEPTIDE DERIVATIVES AND RELATED USES AS OREXIN AGONISTS” (Centessa Pharmaceuticals (UK) Limited, priority 2021, published 2024).
Numbered stars: 1 amine (or outer) side, 2 acyl side, 3 side chain; on linkers, the order of the positions; unused ones are H or OH. Square brackets hold non-standard residues; d marks the D form. Peptide text beside a SMILES is read from it. * marks the point of attachment. X8 = CCCCCC[C@H](NC(=O)[C@@H](NC[C@H](CC(C)C)N*)[C@@H](C)O)C(N)=O; X7 = O=C([C@@H](N[*:1])c1cccc2ccccc12)[*:2]; hArg(Et2) = CCN=C(NCC)NCCCC[C@H](N)C(=O)O; PEG8 = NCCOCCOCCOCCOCCOCCOCCOCCOCCC(=O)O; X1 = O=C(CN(CCc1ccc2ccccc2c1)[*:1])[*:2]; Phg(4-OMe) = COc1ccc([C@H](N)C(=O)O)cc1; X4 = CN(C)CCOCCOCCOCCOCCOCCOCCC(=O)*; Gly(NCH2CH2Ph) = O=C(O)CNCCc1ccccc1; PEG6 = NCCOCCOCCOCCOCCOCCOCCC(=O)O; Hyp = O=C(O)[C@@H]1C[C@@H](O)CN1; Hpg = N[C@H](C(=O)O)c1ccc(O)cc1; NMeN = CN[C@@H](CC(N)=O)C(=O)O; Aoc(2) = CCCCCC[C@H](N)C(=O)O; PEG4 = NCCOCCOCCOCCOCCC(=O)O; Phg = N[C@H](C(=O)O)c1ccccc1; Cbz = O=C(OCc1ccccc1)*

Experiments:
[1] = biological target: T1, human orexin type 1 receptor (hOX1R) (Homo sapiens, UniProt O43613); experiment: Measurement of orexin type 1 receptor agonist activity (FLIPR TETRA intracellular Ca2+ fluorescence); format: cell-based; details: CHO cells expressing hOX1R; agonist activity, Ca2+ fluorescence; read-out: hOX1 pEC50 (converted)
T1 construct: expressed in transfected cells
T1 sequence (O43613 1-425): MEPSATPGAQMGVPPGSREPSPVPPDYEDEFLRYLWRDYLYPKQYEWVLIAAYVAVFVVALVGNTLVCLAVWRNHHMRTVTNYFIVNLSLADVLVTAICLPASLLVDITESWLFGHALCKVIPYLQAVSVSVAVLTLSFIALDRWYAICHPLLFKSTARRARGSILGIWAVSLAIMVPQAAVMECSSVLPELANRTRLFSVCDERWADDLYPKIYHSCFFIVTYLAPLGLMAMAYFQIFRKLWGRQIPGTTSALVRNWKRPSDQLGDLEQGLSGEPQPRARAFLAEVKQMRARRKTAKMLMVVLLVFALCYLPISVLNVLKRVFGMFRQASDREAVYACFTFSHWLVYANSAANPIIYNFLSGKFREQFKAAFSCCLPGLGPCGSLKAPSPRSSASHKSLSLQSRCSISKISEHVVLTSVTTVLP
Experimental: (§1) Stable cell line generation. Obtainment of cells stably expressing either human orexin type 2 or human orexin type 1 receptor: to obtain a stable cell line the Orexin receptor cDNA was inserted into pcDNA3.1(+) plasmid vector and clones identified by G418 drug resistance selection. […] A single clone for OX2R—CHO and OX1R—CHO were grown in bulk and frozen to generate a cell bank for routine screening.
(§2) Measurement of orexin type 1 receptor agonist activity. Chinese hamster ovary (CHO) cells expressing human orexin type 1 receptor (hOX1R) were seeded in each well of 384 well black clear bottom plates (BD Flacon) at 10,000 cells per well and cultured for 24 h in an Ham's F12 (Gibco) medium containing 10% fetal calf serum (Sigma Aldrich) under the conditions of 37° C., 5% CO2. After removal of the medium, 50 μL of assay buffer 1 (0.1% bovine serum albumin (Sigma Aldrich), 20 mM HEPES (Molecular Dimensions), […] probenecid (Sigma Aldrich), 1× Calcium 5 dye (Molecular Devices) in Hank's balanced salt solution (Invitrogen)) was added, and the cells were incubated for 60 min under the conditions of 37° C., 5% CO2. A test peptide was dissolved in dimethyl sulfoxide (Sigma Aldrich) to 1 mM, and then diluted with assay buffer 2 (20 mM HEPES, Hank's balanced salt solution, 0.1% bovine serum albumin). For the reaction, a test peptide solution (10 μl) was added using Fluorescent Imaging Plate Reader TETRA (FLIPR TETRA: manufactured by Molecular Devices), a fluorescence value (excitation wavelength 488 nm, measurement wavelength 570 nm) of each well was measured every one second for 2 min, and the agonist activity was determined using the area of the fluorescence value as an indicator of intracellular Ca^2+ concentration. The agonist activity of the test peptide was calculated assuming that the fluorescence value of the well added with only the dilution buffer was 0% and the fluorescence value of the well added with 10 nM human orexin A (Tocris) buffer was 100%. As used herein, Emax indicates the value at 1 μM concentration when orexin A is converted to a full agonist (maximum value of agonist activity: 100%).

[2] = biological target: T2, human orexin type 2 receptor (hOX2R) (Homo sapiens, UniProt O43614); experiment: Measurement of orexin type 2 receptor agonist activity (FLIPR TETRA intracellular Ca2+ fluorescence); format: cell-based; details: CHO cells expressing hOX2R; agonist activity, Ca2+ fluorescence; read-out: hOX2 pEC50 (converted)
T2 construct: expressed in transfected cells
T2 sequence (O43614 1-444): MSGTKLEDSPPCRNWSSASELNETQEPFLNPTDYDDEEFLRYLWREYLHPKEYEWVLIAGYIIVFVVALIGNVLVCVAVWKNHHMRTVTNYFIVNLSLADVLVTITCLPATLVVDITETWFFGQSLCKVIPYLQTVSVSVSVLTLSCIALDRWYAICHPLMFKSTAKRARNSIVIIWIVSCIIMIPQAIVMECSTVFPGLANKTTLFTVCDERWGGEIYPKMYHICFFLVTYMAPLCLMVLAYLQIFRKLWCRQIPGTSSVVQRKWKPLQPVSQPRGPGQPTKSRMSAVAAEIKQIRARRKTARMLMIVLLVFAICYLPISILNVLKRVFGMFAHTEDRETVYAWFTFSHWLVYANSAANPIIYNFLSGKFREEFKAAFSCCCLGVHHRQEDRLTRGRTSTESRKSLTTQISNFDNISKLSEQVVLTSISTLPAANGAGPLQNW
Experimental: as §1
as §2, with “type 2” for “type 1”, “receptor (hOX2R)” for “receptor (hOX1R) were”

| SMILES | EC50 [1] [nM] | EC50 [2] [nM] |
| --- | --- | --- |
| CCCCCC[C@H](NC(=O)[C@@H](NC[C@H](CC(C)C)NC(=O)[C@@H](NC(=O)CNC(=O)[C@@H](NC(=O)[C@H](C)NC(=O)[C@@H]1C[C@@H](O)CN1C(=O)[C@H](CC(N)=O)NC(=O)CN(CCc1ccccc1)C(=O)CCOCCOCCOCCOCCOCCOCCN)c1ccccc1)[C@@H](C)CC)[C@@H](C)O)C(N)=O [Peptide 1] (H-[PEG6][Gly(NCH2CH2Ph)]N[Hyp]A[Phg]GI-X8) | > 10 | < 0.1 |
| CCCCCC[C@H](NC(=O)[C@@H](NC(=O)[C@H](CC(C)C)NC(=O)[C@@H](NC(=O)CNC(=O)[C@@H](NC(=O)[C@H](C)NC(=O)[C@@H]1C[C@@H](O)CN1C(=O)[C@H](CC(N)=O)NC(=O)CN(CCc1ccccc1)C(=O)[C@H](CCCNC(=N)N)NC(=O)CCOCCOCCOCCOCCOCCOCCN(C)C)c1ccccc1)[C@@H](C)CC)[C@@H](C)O)C(N)=O [Peptide 2] (X4-R[Gly(NCH2CH2Ph)]N[Hyp]A[Phg]GILT[Aoc(2)]-NH2) | 1 to 10 | < 0.1 |
| CCCCCC[C@H](NC(=O)[C@@H](NC(=O)[C@H](CC(C)C)NC(=O)[C@@H](NC(=O)CNC(=O)[C@@H](NC(=O)[C@H](C)NC(=O)[C@@H]1C[C@@H](O)CN1C(=O)[C@H](CC(N)=O)NC(=O)CN(CCc1ccccc1)C(=O)[C@H](CCCNC(=N)N)NC(=O)CCOCCOCCOCCOCCOCCOCCN)c1ccccc1)[C@@H](C)CC)[C@@H](C)O)C(N)=O [Peptide 3] (H-[PEG6]R[Gly(NCH2CH2Ph)]N[Hyp]A[Phg]GILT[Aoc(2)]-NH2) | > 10 | < 0.1 |
| CCCCCC[C@H](NC(=O)[C@@H](NC(=O)[C@H](CC(C)C)NC(=O)[C@@H](NC(=O)CNC(=O)[C@@H](NC(=O)[C@H](C)NC(=O)[C@@H]1C[C@@H](O)CN1C(=O)[C@H](CC(N)=O)NC(=O)CN(CCc1ccccc1)C(=O)[C@H](CCCNC(=N)N)NC(=O)CCOCCOCCOCCOCCN)c1ccccc1)[C@@H](C)CC)[C@@H](C)O)C(N)=O [Peptide 5] (H-[PEG4]R[Gly(NCH2CH2Ph)]N[Hyp]A[Phg]GILT[Aoc(2)]-NH2) | > 10 | < 0.1 |
| CCCCCC[C@H](NC(=O)[C@@H](NC(=O)[C@H](CC(C)C)NC(=O)[C@@H](NC(=O)CNC(=O)[C@@H](NC(=O)[C@H](C)NC(=O)[C@@H]1C[C@@H](O)CN1C(=O)[C@H](CC(N)=O)N(C)C(=O)CN(CCc1ccccc1)C(=O)[C@H](CCCNC(=N)N)NC(=O)CCOCCOCCOCCOCCOCCOCCN)c1ccccc1)[C@@H](C)CC)[C@@H](C)O)C(N)=O [Peptide 6] (H-[PEG6]R[Gly(NCH2CH2Ph)][NMeN][Hyp]A[Phg]GILT[Aoc(2)]-NH2) | > 10 | < 0.1 |
| CCCCCC[C@H](NC(=O)[C@@H](NC(=O)[C@H](CC(C)C)NC(=O)[C@@H](NC(=O)CNC(=O)[C@@H](NC(=O)[C@H](C)NC(=O)[C@@H]1C[C@@H](O)CN1C(=O)[C@H](CC(N)=O)NC(=O)CN(CCc1ccccc1)C(=O)[C@H](CCCNC(=N)N)NC(=O)CCOCCOCCOCCOCCOCCOCCOCCOCCN)c1ccccc1)[C@@H](C)CC)[C@@H](C)O)C(N)=O [Peptide 8] (H-[PEG8]R[Gly(NCH2CH2Ph)]N[Hyp]A[Phg]GILT[Aoc(2)]-NH2) | > 10 | < 0.1 |
| CCCCCC[C@H](NC(=O)[C@@H](NC(=O)[C@H](CC(C)C)NC(=O)[C@@H](NC(=O)CNC(=O)[C@@H](NC(=O)[C@H](C)NC(=O)[C@@H]1C[C@@H](O)CN1C(=O)[C@H](CC(N)=O)NC(=O)CN(CCc1ccccc1)C(=O)[C@H](CCCCNC(=NCC)NCC)NC(=O)OCc1ccccc1)c1ccccc1)[C@@H](C)CC)[C@@H](C)O)C(N)=O [Peptide 10] (Cbz-[hArg(Et2)][Gly(NCH2CH2Ph)]N[Hyp]A[Phg]GILT[Aoc(2)]-NH2) | > 10 | < 0.1 |

Further lines, results first:

| EC50 [1] [nM] | EC50 [2] [nM] | SMILES |
| --- | --- | --- |
| > 10 | < 0.1 | CCCCCC[C@H](NC(=O)[C@@H](NC(=O)[C@H](CC(C)C)NC(=O)[C@@H](NC(=O)CNC(=O)[C@@H](NC(=O)[C@H](C)NC(=O)[C@@H]1C[C@@H](O)CN1C(=O)[C@H](CC(N)=O)NC(=O)CN(CCc1ccccc1)C(=O)[C@@H](N)CCCCN/C(=N/CC)NCC)c1ccccc1)[C@@H](C)CC)[C@@H](C)O)C(N)=O [Peptide 4] (H-[hArg(Et2)][Gly(NCH2CH2Ph)]N[Hyp]A[Phg]GILT[Aoc(2)]-NH2) |
| > 10 | < 0.1 | CCCCCC[C@H](NC(=O)[C@@H](NC(=O)[C@H](CC(C)C)NC(=O)[C@@H](NC(=O)CNC(=O)[C@@H](NC(=O)[C@H](C)NC(=O)[C@@H]1C[C@@H](O)CN1C(=O)[C@H](CC(N)=O)NC(=O)CN(CCc1ccccc1)C(=O)[C@@H](N)CCCCN/C(=N/CC)NCC)c1ccc(O)cc1)[C@@H](C)CC)[C@@H](C)O)C(N)=O [Peptide 7] (H-[hArg(Et2)][Gly(NCH2CH2Ph)]N[Hyp]A[Hpg]GILT[Aoc(2)]-NH2) |
| > 10 | < 0.1 | CCCCCC[C@H](NC(=O)[C@@H](NC(=O)[C@H](CC(C)C)NC(=O)[C@@H](NC(=O)CNC(=O)[C@@H](NC(=O)[C@H](C)NC(=O)[C@@H]1C[C@@H](O)CN1C(=O)[C@H](CC(N)=O)NC(=O)CN(CCc1ccccc1)C(=O)[C@@H](N)CCCCNC(=NCC)NCC)c1cccc2ccccc12)[C@@H](C)CC)[C@@H](C)O)C(N)=O [Peptide 9] (H-[hArg(Et2)][Gly(NCH2CH2Ph)]N[Hyp]A[X7]GILT[Aoc(2)]-NH2; N-terminus assumed) |
| 1 to 10 | < 0.1 | CCCCCC[C@H](NC(=O)[C@@H](NC(=O)[C@H](CC(C)C)NC(=O)[C@@H](NC(=O)CNC(=O)[C@@H](NC(=O)[C@H](C)NC(=O)[C@H](Cc1c[nH]cn1)NC(=O)[C@H](CC(N)=O)NC(=O)CN(CCc1ccc2ccccc2c1)C(=O)[C@@H](N)CCCCNC(=NCC)NCC)c1ccccc1)[C@@H](C)CC)[C@@H](C)O)C(N)=O [Peptide 11] (H-[hArg(Et2)][X1]NHA[Phg]GILT[Aoc(2)]-NH2; N-terminus assumed) |
| > 10 | < 0.1 | CCCCCC[C@H](NC(=O)[C@@H](NC(=O)[C@H](CC(C)C)NC(=O)[C@@H](NC(=O)CNC(=O)[C@@H](NC(=O)[C@H](C)NC(=O)[C@H](Cc1c[nH]cn1)NC(=O)[C@H](CC(N)=O)NC(=O)CN(CCc1ccccc1)C(=O)[C@@H](N)CCCCN/C(=N/CC)NCC)c1ccc(OC)cc1)[C@@H](C)CC)[C@@H](C)O)C(N)=O [Peptide 12] (H-[hArg(Et2)][Gly(NCH2CH2Ph)]NHA[Phg(4-OMe)]GILT[Aoc(2)]-NH2) |
